Data: patent US20190365719A1, “COMBINATION TREATMENTS OF HSP90 INHIBITORS FOR ENHANCING TUMOR IMMUNOGENICITY AND METHODS OF USE THEREOF” (Massachusetts Institute of Technology, priority 2018, published 2019)

Tested on: MC38 tumors
Assay: Subcutaneous MC38 tumors in syngeneic C57Bl/6 mice, HSP90i in drinking water
Assay type: in vivo
Method: All experiments involving mice were performed under a protocol approved by the MIT Institutional Animal Care and Use Committee. MC38 cells growing in log phase were harvested by incubation with trypsin, washed 3× in PBS, and implanted (1×10^5 cells/site) into the right inguinal region of 6-8 week old female C57B16 mice (Jackson Labs). Once palpable, tumors were monitored every other day via digital caliper measurements and volume calculated using the following formula: Length (mm)×Width (mm)×Width (mm)×[…]=tumor volume in mm^3. Mice were euthanized by CO2 inhalation, tumors were harvested and cut into thirds with a razor for histology, flow cytometry, and flash freezing in liquid N2 for RNA/protein isolation.
For oral dosing with HSP90i, the average water consumption of the mice was calculated by measuring water bottle weight before and after 72 hours of housing to determine the average consumption per mouse, per day. Across all experiments, C57Cl/6 mice consumed approximately 4 mL every day. Using these water consumption values, and mouse weight, a 4 mg/mL stock solution of NVP-HSP990 (in 100% PEG400) was diluted directly into the drinking water to achieve a target dose of 0.5 mg/kg/day. HSP990 treatment was begun 72 hours prior to implantation of MC38 cells to allow the drug to reach steady state level prior to tumor challenge.
Histology For histological sectioning, tumor tissue was fixed in 10% buffered formalin for 24 hours prior to transfer to 70% EtOH for storage until paraffin-embedding, sectioning and mounting on glass slides. For CD3 and CD8 staining, slides were dewaxed, and antigen retrieval was performed in citrate buffer (10 mM Citric acid, pH=6.0) and pressure-cooked. Slides were then cooled and washed in PBS+0.1% Tween-20 (PBST). Endogenous peroxidase activity was then blocked with Dako Dual Enzyme Block (Agilent Technologies) and endogenous proteins were blocked with 2.5% goat serum in PBST. Slides were then incubated with primary anti-CD8 antibody (1:400) overnight at 4° C. or anti-CD3 antibody (1:500) for 1 hr at 25° C. After incubation with primary antibody, slides were washed 3× with PBST, and then incubated with HRP-conjugated secondary antibody for 30 min at […]. Slides were then washed 3× with PBST prior to development with DAB substrate for 3-5 min until positive staining was observed.
For CD8 and CD3 quantification, slides were scanned with a Leica High Resolution slide scanner and images imported into Aperio eSlide Manager. Two independent sections from each tumor were outlined and CD3/CD8+ cells were identified and quantified using the Nuclear-ID-v1 Algorithm. Individual tumor values are the average of the two tumor sections.
For analysis of MHC Class I on MC38 tumors, mice were sacrificed with by CO2 inhalation, tumor tissue quickly dissected and placed on ice until processing by thorough mincing with a razor and filtration through a 70 μm cell strainer. Cells were then stained with H2-Kb antibody (1:400) or isotype control as described for cultured cells.
For analysis of tissues, samples (2.5-5.0 mm^3) were homogenized in 1 mL of Trizol (Molecular Research Center), phase separated with 200 μL chloroform, and precipitated with 100% isopropanol prior to resuspension in MilliQ H2O and quantification with Nanodrop. RNA was then processed as described above for qRT-PCR.

[1] = 0.5 mg/kg/day in drinking water, 18 days post implantation, C57Bl/6

COc1cccc(-c2cc(F)ccc2[C@H]2Cc3nc(N)nc(C)c3C(=O)N2)n1 [NVP-HSP990]
reduction in tumor mass [1]: greater than 50% | reduction in tumor volume [1]: greater than 50% | heat-shock response in tumors (qRT-PCR) (continuous low-dose administration): does not induce a heat-shock response | immune gene expression in MC38 tumor tissue (Nanostring) (low dose exposure): did not result in broad downregulation in immune gene expression | total number of CD3+ or CD8+ T-cells in the tumors (treated versus control mice): no significant difference | MHC Class I expression on the surface of dissociated MC38 tumor cells (tumors from treated mice versus vehicle): higher levels of MHC Class I expression
